Values of other authors as cited in patent US20240415944A1, “Aqueous aprotinin-containing antiviral pharmaceutical composition” (priority 2021, published 2024).
Read-outs that look alike come from different tables or passages of the source.

Legend:
influenza = details: adult influenza patients
kallikrein = details: manufacturer data
[1] = clinical trials of acute uncomplicated influenza
[2] = kallikrein inactivating units per mg

CCOC(=O)C1=C[C@@H](OC(CC)CC)[C@H](NC(C)=O)[C@@H](N)C1 [Oseltamivir, oseltamivir]
mean time to relief of clinical symptoms (influenza): 97.5 h
risk of nausea (RR) (influenza): 1.60
risk of vomiting (RR) (influenza): 2.43
acceleration of time to relief of clinical symptoms (influenza; versus placebo): 17.8 to 25.2 h

aprotinin [aprotinin produced by Sigma-Aldrich (USA)]
aprotinin activity (kallikrein; [2]): 6500 KIU/mg

aprotinin [aprotinin produced by Wanhua Biochem (China) No. NATE-1892]
aprotinin activity (kallikrein; [2]): > 5400 KIU/mg
aprotinin activity (kallikrein): > 3.0 EPU/mg

COC(=O)OCOc1c2n(ccc1=O)N([C@@H]1c3ccccc3SCc3c1ccc(F)c3F)[C@@H]1COCCN1C2=O [baloxavir, baloxavir marboxil]
adverse reaction: bronchitis [1]: 3%
adverse reaction: diarrhea [1]: 3%
adverse reaction: headache [1]: 1%
adverse reaction: nausea [1]: 2%
adverse reaction: sinusitis [1]: 2%
